# Laboratory results: patent US20120010075A1 (priority 2009, published 2012)
# Read-outs that look alike come from different tables or passages of the source.
# Key:
# [1] = tested on: Leptosphaeria nodorum (LEPTNO); experiment: In vitro fungitoxicity of hydrazones with and without copper towards Leptosphaeria nodorum (Example 26); type: cell-based; conditions: 72 h at 25° C.; for inhibition of growth at 0.05 µg/mL: Parastagonospora nodorum, 72 h, copper-minus medium, read-out: LEPTNO % Inhn. Minus Copper Observed
# Phytophthora infestans = type: in vivo, Phytophthora infestans on tomato; conditions: applied 24 h before inoculation, assessed 7 days after inoculation
# [2] = compound 0.05 μg/mL, copper-plus medium (CuCl2.2H2O)
# [3] = hydrazone 50 ppm + 50 μM CuCl2.2H2O, tomato
# [4] = test compound Concn. 0.05 μg/mL
# [5] = copper-plus medium (CuCl2 10 μM), test compound Concn. 0.05 μg/mL
# [6] = hydrazone 50 ppm with 50 μM CuCl2.2H2O, tomato late blight
Compound,inhibition of growth at 0.05 µg/mL ([1]; compound 0.05 μg/mL),"LEPTNO % Inhn. Plus Copper Observed [1, 2]",melting point,TLB % Control (Phytophthora infestans; [3]),"inhibition of growth at 0.05 µg/mL [1, 4]","LEPTNO % Inhn. Plus Copper Observed [1, 5]",TLB % Control (Phytophthora infestans; [6])
C/C(=N\NC(=O)c1cccc(C)c1)c1ccc(Cl)cc1O [Example 253],4.9%,98.0%,210 to 211 °C,14.0%,–,–,–
Cc1ccc(C(=O)N/N=C/c2cc(Cl)cc(Br)c2O)cc1 [Example 413],–,–,279 to 282 °C,–,18.9%,97.9%,94.0%
COc1ccc(C(=O)N/N=C(\C)c2cccc(Cl)c2O)cc1 [Example 499],–,–,203 to 204 °C,–,0%,97.4%,85.0%
COc1ccccc1C(=O)N/N=C(\C)c1cc(Cl)cc(Cl)c1O [Example 141],1.5%,96.2%,307 to 310 °C,52.0%,–,–,–
COc1ccc(C(=O)N/N=C(\C)c2cccc([N+](=O)[O-])c2O)cc1 [Example 521],–,–,204 to 212 °C,–,5%,95.9%,83.0%
C/C(=N\NC(=O)c1ccccc1C)c1cccc(Cl)c1O [Example 493],–,–,193 to 198 °C,–,0%,97.8%,95.0%
O=C(N/N=C/c1ccc(Cl)cc1O)c1ccccc1O [Example 395],–,–,210 to 213 °C,–,8.2%,93.9%,76.0%
C/C(=N\NC(=O)c1ccc(C)cc1O)c1cc(Cl)cc(Cl)c1O [Example 491],–,–,320 to 323 °C,–,25%,97.5%,75.0%
O=C(N/N=C/c1ccc(Cl)cc1O)c1cccc([N+](=O)[O-])c1 [Example 393],–,–,233 to 238 °C,–,4.3%,96.1%,73.0%
O=C(N/N=C/c1c(Cl)ccc(Cl)c1O)c1ccc(F)cc1 [Example 368],–,–,264 to 267 °C,–,0%,96.9%,98.0%
C/C(=N\NC(=O)c1ccccc1Cl)c1cc(Br)ccc1O [Example 291],2.2%,95.4%,198 to 201 °C,67.0%,–,–,–
C/C(=N\NC(=O)c1ccccc1O)c1ccc(Cl)cc1O [Example 463],–,–,311 to 312 °C,–,5.1%,96.3%,61.0%
C/C(=N\NC(=O)c1ccccc1O)c1cc(Br)ccc1O [Example 520],–,–,281 to 303 °C,–,14.9%,96.7%,49.0%
C/C(=N\NC(=O)c1cccc(C)c1)c1cccc(Cl)c1O [Example 494],–,–,164 to 178 °C,–,0%,97.7%,96.0%
C/C(=N\NC(=O)c1cccc(Cl)c1)c1cc(F)cc(F)c1O [Example 577],–,–,279 to 282 °C,–,1.9%,97.9%,100.0%
O=C(N/N=C/c1cc(Cl)ccc1O)c1ccc(F)cc1 [Example 421],–,–,234 to 243 °C,–,8.2%,96.6%,94.0%
C/C(=N\NC(=O)c1ccc(Br)cc1)c1cccc([N+](=O)[O-])c1O [Example 522],–,–,244 to 252 °C,–,9.4%,97.3%,95.0%
